Assay results reported in US20100285959A1, “HERBICIDAL MIXTURES” (priority 2006, published 2010).

What was measured:
yellow foxtail (SETLU) = assay: Test 1 field trial, preemergence; format: in vivo, Setaria glauca; details: 56 DAA; g a.i./ha: Atrazine 1680; S-Metolachlor 1870
From the text: Corn seeds (hybrid ‘Pioneer 34N43’) were planted in mid spring season, 3.8 cm deep in a silt loam soil having 4.6% organic matter and a pH of 6. Plots were 10.7 m long by 1.5 m wide with rows spaced 76 cm apart. Seeds were spaced 18 cm apart within the rows. The field was managed using conventional tillage practices. […] Results are summarized in Table 1 and are the means of the three replicates. […] Colby's Equation (Colby, S. R. “Calculating Synergistic and Antagonistic Responses of Herbicide Combinations,” Weeds, 15(1), pp 20-22 (1967)) calculates the expected additive effect of herbicidal mixtures, and for two active ingredients is of the form:
Pa+b=Pa+Pb−(PaPb/100) • wherein Pa+b is the percentage effect of the mixture expected from additive contribution of the individual components, • Pa is the observed percentage effect of the first active ingredient at the same use rate as in the mixture, and • Pb is the observed percentage effect of the second active ingredient at the same use rate as in the mixture.

common ragweed (AMBEL) = assay: Test 5 field trial, postemergence; format: in vivo, Ambrosia artemisiifolia; details: atrazine 1120, glufosinate 470 or glyphosate 1120 g a.i./ha alone
From the text: (§1) Corn seeds (hybrid ‘Pioneer 38H69’) were planted in mid spring season, 5.1 cm deep in a silty clay loam soil having 3% organic matter and a pH of 6.5. Plots were 9.1 m long by 3.0 m wide with rows spaced 76 cm apart. The field was managed using conventional tillage practices. […] All treatments included a surfactant except glufosinate treatments, both alone and in combination. […] Results are summarized in Table 5 and are the means of the three replicates.

large crabgrass (DIGSA) = assay: Test 5 field trial, postemergence; format: in vivo, Digitaria sanguinalis; details: atrazine 1120, glufosinate 470 or glyphosate 1120 g a.i./ha alone
From the text: as §1

[1] = test system: Pennsylvania smartweed (POLPY); assay: Test 6 field trial, postemergence; format: in vivo, Polygonum pensylvanicum; details: 1120 g a.i./ha
From the text: (§2) Corn seeds (hybrid ‘Pioneer 35Y62’) were planted in mid spring season, 3.8 cm deep in a silt loam soil having 4% organic matter and a pH of 5.8. Plots were 10.7 m long by 1.5 m wide with rows spaced 76 cm apart. Seeds were spaced 18 cm apart within the rows. The field was managed using conventional tillage practices. […] All treatments included a surfactant except glufosinate treatments, both alone and in combination. […] Results are summarized in Table 6 and are the means of the three replicates.

giant foxtail (SETFA) = assay: Test 6 field trial, postemergence; format: in vivo, Setaria faberi; details: 1120 g a.i./ha
From the text: as §2

[2] = test system: common lambsquarters (CHEAL); assay: Test 8 field trial, preemergence; format: in vivo, Chenopodium album; details: g a.i./ha: Cpd 2 100, Atrazine 1680, S-Metolachlor 1870
From the text: Corn seeds (hybrid ‘Pioneer 31G96’) were planted in mid spring season, 3.8 cm deep in a clay loam soil having 2% organic matter and a pH of 6.6. Plots were 6.1 m long by 3.0 m wide with rows spaced 76 cm apart. Seeds were spaced 15 cm apart within the rows. The field was managed using conventional tillage practices. […] A few of the weed species could not be evaluated at every timing. […] Results are the means of the three replicates.

corn (ZEAMD) = assay: Test 10 field trial, preemergence; format: in vivo, Zea mays ssp. indentata; details: 28 DAA; g a.i./ha: Cpd 2 100, Atrazine 1680, S-Metolachlor 1870
From the text: (§3) Corn seeds (hybrid ‘Pioneer 33P65 RR’) were planted in mid spring season, 2.5 cm deep in a silt loam soil. Plots were 9.1 m long by 3.0 m wide with rows spaced 76 cm apart. The field was managed using conventional tillage practices. […] Results are the means of the three replicates.

[3] = test system: ivyleaf morningglory (IPOHE); assay: Test 10 field trial, preemergence; format: in vivo, Ipomoea hederacea; details: 28 DAA; g a.i./ha: Cpd 2 100, Atrazine 1680, S-Metolachlor 1870
From the text: as §3

Surinam grass (BRADC) = assay: Test 11 field trial, preemergence; format: in vivo, Brachiaria decumbens; set-up: scale not given here
From the text: (§4) Corn seeds (hybrid ‘Pioneer 3041’) were planted in mid spring season, 5 cm deep in a clay soil having 2.6% organic matter and a pH of 5.6. Plots were 8 m long by 1.5 m wide with rows spaced 80 cm apart. Seeds were spaced 15 cm apart within the rows. The field was managed using conventional tillage practices. […] Treatments consisted of Compound 2 or
(§5) Goosegrass was not evaluated 16 or 91 days after application.

alexandergrass (BRAPL) = assay: Test 11 field trial, preemergence; format: in vivo, Brachiaria plantaginea; set-up: scale not given here
From the text: as §4, §5

[4] = test system: tropical spiderwort (COMBE); assay: Test 11 field trial, preemergence; format: in vivo, Commelina benghalensis; set-up: scale not given here
From the text: as §4, §5

[5] = test system: Brazilian crabgrass (DIGHO); assay: Test 11 field trial, preemergence; format: in vivo, Digitaria horizontalis; set-up: scale not given here
From the text: as §4, §5

[6] = 16 DAA, atrazine 1500 or metolachlor 2500 g a.i./ha alone
[7] = 30 DAA, atrazine 1500 or metolachlor 2500 g a.i./ha alone
[8] = 44 DAA, atrazine 1500 or metolachlor 2500 g a.i./ha alone
[9] = 62 DAA, atrazine 1500 or metolachlor 2500 g a.i./ha alone
[10] = 91 DAA, atrazine 1500 or metolachlor 2500 g a.i./ha alone
[11] = 16 DAA, Cpd 2/Cpd 1 at 62 g a.i./ha, alone or + atrazine 1500 or metolachlor 2500
[12] = 16 DAA, Cpd 2/Cpd 1 at 125 g a.i./ha, alone or + atrazine 1500 or metolachlor 2500
[13] = 30 DAA, Cpd 2/Cpd 1 at 62 g a.i./ha, alone or + atrazine 1500 or metolachlor 2500
[14] = 30 DAA, Cpd 2/Cpd 1 at 125 g a.i./ha, alone or + atrazine 1500 or metolachlor 2500
[15] = 44 DAA, Cpd 2/Cpd 1 at 62 g a.i./ha, alone or + atrazine 1500 or metolachlor 2500
[16] = 44 DAA, Cpd 2/Cpd 1 at 125 g a.i./ha, alone or + atrazine 1500 or metolachlor 2500
[17] = 62 DAA, Cpd 2/Cpd 1 at 62 g a.i./ha, alone or + atrazine 1500 or metolachlor 2500
[18] = 62 DAA, Cpd 2/Cpd 1 at 125 g a.i./ha, alone or + atrazine 1500 or metolachlor 2500
[19] = 91 DAA, Cpd 2/Cpd 1 at 62 g a.i./ha, alone or + atrazine 1500 or metolachlor 2500
[20] = 91 DAA, Cpd 2/Cpd 1 at 125 g a.i./ha, alone or + atrazine 1500 or metolachlor 2500

## CCNc1nc(Cl)nc(NC(C)C)n1 [Atrazine, atrazine, reference compound]
Yellow foxtail (SETLU)
  SETLU Obs: 0
Common ragweed (AMBEL); 16 DAA
  AMBEL Obs: 45%
Common ragweed (AMBEL); 31 DAA
  AMBEL Obs: 30%
Large crabgrass (DIGSA); 16 DAA
  DIGSA Obs: 0%
Large crabgrass (DIGSA); 31 DAA
  DIGSA Obs: 0%
[1]; 14 DAA
  POLPY Obs: 73%
[1]; 28 DAA
  POLPY Obs: 83%
Giant foxtail (SETFA); 14 DAA
  SETFA Obs: 0%
Giant foxtail (SETFA); 28 DAA
  SETFA Obs: 0%
[2]; 19 DAA
  CHEAL Obs: 100%
[2]; 56 DAA
  CHEAL Obs: 100%
Corn (ZEAMD)
  ZEAMD Obs: 0%
[3]
  IPOHE Obs: 37%
Surinam grass (BRADC); [6]
  BRADC Obs: 40
Surinam grass (BRADC); [7]
  BRADC Obs: 20
Surinam grass (BRADC); [8]
  BRADC Obs: 0
Surinam grass (BRADC); [9]
  BRADC Obs: 0
Surinam grass (BRADC); [10]
  BRADC Obs: 0
Alexandergrass (BRAPL); [6]
  BRAPL Obs: 75
Alexandergrass (BRAPL); [7]
  BRAPL Obs: 50
Alexandergrass (BRAPL); [8]
  BRAPL Obs: 50
Alexandergrass (BRAPL); [9]
  BRAPL Obs: 0
Alexandergrass (BRAPL); [10]
  BRAPL Obs: 0
[4]; [6]
  COMBE Obs: 99
[4]; [7]
  COMBE Obs: 100
[4]; [8]
  COMBE Obs: 100
[4]; [9]
  COMBE Obs: 97
[4]; [10]
  COMBE Obs: 95
[5]; [6]
  DIGHO Obs: 60
[5]; [7]
  DIGHO Obs: 40
[5]; [8]
  DIGHO Obs: 20
[5]; [9]
  DIGHO Obs: 0
[5]; [10]
  DIGHO Obs: 0

## Nc1nc(C2CC2)nc(C(=O)O)c1Cl [Compound 1, 6-amino-5-chloro-2-cyclopropyl-4-pyrimidinecarboxylic acid]
Surinam grass (BRADC); [11]
  BRADC Obs: 20
Surinam grass (BRADC); [12]
  BRADC Obs: 40
Surinam grass (BRADC); [13]
  BRADC Obs: 20
Surinam grass (BRADC); [14]
  BRADC Obs: 50
Surinam grass (BRADC); [15]
  BRADC Obs: 0
Surinam grass (BRADC); [16]
  BRADC Obs: 40
Surinam grass (BRADC); [17]
  BRADC Obs: 0
Surinam grass (BRADC); [18]
  BRADC Obs: 0
Surinam grass (BRADC); [19]
  BRADC Obs: 0
Surinam grass (BRADC); [20]
  BRADC Obs: 0
Alexandergrass (BRAPL); [11]
  BRAPL Obs: 40
Alexandergrass (BRAPL); [12]
  BRAPL Obs: 40
Alexandergrass (BRAPL); [13]
  BRAPL Obs: 20
Alexandergrass (BRAPL); [14]
  BRAPL Obs: 60
Alexandergrass (BRAPL); [15]
  BRAPL Obs: 0
Alexandergrass (BRAPL); [16]
  BRAPL Obs: 40
Alexandergrass (BRAPL); [17]
  BRAPL Obs: 0
Alexandergrass (BRAPL); [18]
  BRAPL Obs: 0
Alexandergrass (BRAPL); [19]
  BRAPL Obs: 0
Alexandergrass (BRAPL); [20]
  BRAPL Obs: 0
[4]; [11]
  COMBE Obs: 40
[4]; [12]
  COMBE Obs: 60
[4]; [13]
  COMBE Obs: 60
[4]; [14]
  COMBE Obs: 95
[4]; [15]
  COMBE Obs: 60
[4]; [16]
  COMBE Obs: 95
[4]; [17]
  COMBE Obs: 40
[4]; [18]
  COMBE Obs: 60
[4]; [19]
  COMBE Obs: 0
[4]; [20]
  COMBE Obs: 70
[5]; [11]
  DIGHO Obs: 0
[5]; [12]
  DIGHO Obs: 0
[5]; [13]
  DIGHO Obs: 0
[5]; [14]
  DIGHO Obs: 20
[5]; [15]
  DIGHO Obs: 0
[5]; [16]
  DIGHO Obs: 20
[5]; [17]
  DIGHO Obs: 0
[5]; [18]
  DIGHO Obs: 0
[5]; [19]
  DIGHO Obs: 0
[5]; [20]
  DIGHO Obs: 0

## O=C(O)CNCP(=O)(O)O [Glyphosate]
Common ragweed (AMBEL); 16 DAA
  AMBEL Obs: 84%
Common ragweed (AMBEL); 31 DAA
  AMBEL Obs: 100%
Large crabgrass (DIGSA); 16 DAA
  DIGSA Obs: 98%
Large crabgrass (DIGSA); 31 DAA
  DIGSA Obs: 95%
[1]; 14 DAA
  POLPY Obs: 84%
[1]; 28 DAA
  POLPY Obs: 91%
Giant foxtail (SETFA); 14 DAA
  SETFA Obs: 100%
Giant foxtail (SETFA); 28 DAA
  SETFA Obs: 100%

## CCc1cccc(C)c1N(C(=O)CCl)[C@@H](C)COC [S-Metolachlor, S-metolachlor, reference compound]
Yellow foxtail (SETLU)
  SETLU Obs: 100
[2]; 19 DAA
  CHEAL Obs: 45%
[2]; 56 DAA
  CHEAL Obs: 23%
Corn (ZEAMD)
  ZEAMD Obs: 0%
[3]
  IPOHE Obs: 23%
